Patent publication US20110065632A1, “PHARMACEUTICAL COMPOSITIONS OF SOMATOSTATIN-DOPAMINE CONJUGATES” (priority 2008, published 2011)

Key:
hDA2 = assay: Dopamine-2 receptor radioligand binding assay; set-up: species or system human; conditions: [3H]spiperone
hsst5 = target: T1, hsst5 (Homo sapiens, UniProt P35346); assay: Somatostatin receptor radioligand binding assay, hsst5; conditions: hsst5 Ki, CHO-K1 membranes, [125I-Tyr11]SS-14
T1 construct: expressed in transfected cells
In short: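 Membranes from CHO-K1 cells stably expressing hsst5, incubated 90 min at 25 °C with 0.05 nM [125I-Tyr11]SS-14 in 50 mM HEPES pH 7.4 with BSA, MgCl2 and protease inhibitors. Bound ligand collected by filtration. Non-specific binding defined with 1000 nM SS-14.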

hsst1 = target: T2, hsst1 (Homo sapiens, UniProt P30872); assay: Somatostatin receptor radioligand binding assay, hsst1
T2 construct: expressed in transfected cells
In short: (§1)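 Membranes from CHO-K1 cells stably transfected with each human SSTR subtype, incubated 90 min at 25 °C with 0.05 nM [125I-Tyr11]SS-14 in 50 mM HEPES pH 7.4 with BSA, MgCl2 and protease inhibitors; filtration read-out. Nonspecific binding with 1000 nM SS-14; Ki values reported.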

hsst3 = target: T3, hsst3 (Homo sapiens, UniProt P32745); assay: Somatostatin receptor radioligand binding assay, hsst3
T3 construct: expressed in transfected cells
In short: as §1

D2 = target: T4, D2 (Homo sapiens, UniProt P14416); assay: cAMP Responsive Element-Luciferase reporter gene assay, D2-monotransfected HEK-293 cells; type: cell-based; conditions: read-out: IC50 value of cAMP inhibition
T4 construct: expressed in transfected cells; host or cells: HEK-293, transient
Description: A cAMP Responsive Element-Luciferase reporter gene assay in HEK-293 cells was used in this assay, wherein said HEK-293 cells were transiently transfected with D2 and/or sst2 cDNA. […] In sst2-monotransfected cells, the IC50 value of cAMP inhibition of Example 1 was 0.04 nM.

hsst2 = target: T5, hsst2 (Homo sapiens, UniProt P30874); assay: Somatostatin receptor radioligand binding assay, hsst2; conditions: CHO-K1 membranes, [125I]MK-678; read-out: hsst2 Ki
T5 construct: expressed in transfected cells
In short: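 Membranes from CHO-K1 cells stably expressing human SSTR2, in 10 mM Tris-HCl, incubated 90 min at 25 °C with 0.05 nM [125I]MK-678. Bound ligand collected by filtration on PEI-soaked GF/C filters; nonspecific binding defined with 1000 nM MK-678.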

T3 sequence (P32745 whole entry): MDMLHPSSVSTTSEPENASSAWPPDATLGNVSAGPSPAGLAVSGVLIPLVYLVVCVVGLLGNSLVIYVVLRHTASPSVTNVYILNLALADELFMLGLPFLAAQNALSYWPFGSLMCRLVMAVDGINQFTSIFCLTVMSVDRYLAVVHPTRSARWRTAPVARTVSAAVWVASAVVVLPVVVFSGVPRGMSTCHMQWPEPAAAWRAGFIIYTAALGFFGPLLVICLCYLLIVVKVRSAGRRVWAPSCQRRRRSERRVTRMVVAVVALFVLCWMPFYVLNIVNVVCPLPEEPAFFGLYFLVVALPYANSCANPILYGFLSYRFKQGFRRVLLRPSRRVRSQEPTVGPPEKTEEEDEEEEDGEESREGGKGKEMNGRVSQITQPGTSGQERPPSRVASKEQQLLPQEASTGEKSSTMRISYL
T1 sequence (P35346 whole entry): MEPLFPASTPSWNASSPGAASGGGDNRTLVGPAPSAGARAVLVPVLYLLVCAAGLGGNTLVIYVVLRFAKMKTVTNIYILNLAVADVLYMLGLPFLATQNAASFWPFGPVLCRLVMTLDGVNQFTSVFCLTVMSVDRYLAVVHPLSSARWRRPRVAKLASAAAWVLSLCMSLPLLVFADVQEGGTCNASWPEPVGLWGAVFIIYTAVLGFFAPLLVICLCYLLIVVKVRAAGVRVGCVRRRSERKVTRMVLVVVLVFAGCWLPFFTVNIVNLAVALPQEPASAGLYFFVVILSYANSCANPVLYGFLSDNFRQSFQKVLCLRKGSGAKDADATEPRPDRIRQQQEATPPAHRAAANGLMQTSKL
T2 sequence (P30872 whole entry): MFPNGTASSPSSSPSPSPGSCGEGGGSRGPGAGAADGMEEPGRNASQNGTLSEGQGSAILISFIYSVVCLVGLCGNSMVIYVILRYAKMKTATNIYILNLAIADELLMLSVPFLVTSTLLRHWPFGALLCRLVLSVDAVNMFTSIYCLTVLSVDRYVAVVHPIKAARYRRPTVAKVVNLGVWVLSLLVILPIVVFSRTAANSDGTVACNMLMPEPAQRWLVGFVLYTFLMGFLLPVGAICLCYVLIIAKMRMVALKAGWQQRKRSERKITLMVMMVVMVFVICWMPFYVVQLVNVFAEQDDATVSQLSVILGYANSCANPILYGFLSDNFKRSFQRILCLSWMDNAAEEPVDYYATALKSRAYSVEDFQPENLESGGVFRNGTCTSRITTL
T5 sequence (P30874 whole entry): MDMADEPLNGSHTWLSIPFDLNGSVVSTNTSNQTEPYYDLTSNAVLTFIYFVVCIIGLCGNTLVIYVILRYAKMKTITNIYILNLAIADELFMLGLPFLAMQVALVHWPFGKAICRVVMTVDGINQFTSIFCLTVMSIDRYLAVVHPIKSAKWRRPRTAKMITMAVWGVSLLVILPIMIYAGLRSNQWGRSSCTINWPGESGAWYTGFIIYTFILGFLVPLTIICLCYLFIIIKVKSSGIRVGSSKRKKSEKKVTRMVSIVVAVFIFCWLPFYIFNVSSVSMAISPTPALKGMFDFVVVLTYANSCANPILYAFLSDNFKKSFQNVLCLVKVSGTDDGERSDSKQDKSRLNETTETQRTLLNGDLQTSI
T4 sequence (P14416 whole entry): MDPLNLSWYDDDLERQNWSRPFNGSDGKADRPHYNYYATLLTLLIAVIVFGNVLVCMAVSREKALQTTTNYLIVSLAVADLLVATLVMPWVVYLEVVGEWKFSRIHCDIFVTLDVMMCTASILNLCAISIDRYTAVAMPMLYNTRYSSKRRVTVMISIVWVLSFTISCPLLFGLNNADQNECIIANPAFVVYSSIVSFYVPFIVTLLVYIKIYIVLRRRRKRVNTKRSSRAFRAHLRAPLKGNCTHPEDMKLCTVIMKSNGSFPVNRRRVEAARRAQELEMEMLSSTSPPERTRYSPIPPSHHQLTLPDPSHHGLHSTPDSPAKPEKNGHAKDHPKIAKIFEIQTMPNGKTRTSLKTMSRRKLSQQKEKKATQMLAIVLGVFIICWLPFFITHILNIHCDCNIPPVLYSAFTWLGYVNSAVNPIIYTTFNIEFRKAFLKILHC

Question: For `CCCN1C[C@H](CSCC(=O)NCCCC[C@@H](NC(=O)CSC[C@@H]2C[C@@H]3c4cccc5[nH]cc(c45)C[C@H]3N(CCC)C2)C(=O)N[C@H]2CSSC[C@@H](C(=O)N[C@H](C(N)=O)[C@@H](C)O)NC(=O)[C@H](CC)NC(=O)[C@H](CCCCN)NC(=O)[C@@H](Cc3c[nH]c4ccccc34)NC(=O)[C@H](Cc3ccc(O)cc3)NC2=O)C[C@@H]2c3cccc4[nH]cc(c34)C[C@H]21` [Example 1, Dop2-DLys(Dop2)-cyclo[Cys-Tyr-DTrp-Lys-Abu-Cys]-Thr-NH2], which Ki (hDA2) is on record?
Answer: 15.8 nM

Question: What about the Ki (hsst5) of the same molecule?
Answer: 41.5 nM

Question: What about the Ki (hsst1) of the same molecule?
Answer: 843 nM

Question: What about the Ki (hsst3) of the same molecule?
Answer: 160 nM

Question: What about the IC50 (D2) of the same molecule?
Answer: 0.02 nM

Question: And the Ki (hsst2)?
Answer: 0.03 nM
